35 compounds from patent publication US11168093B2, “Thienopyridine inhibitors of RIPK2” (Celgene Corporation, priority 2018, dated 2021) can be followed below.

The experiment concerns the target RIPK2 enzyme (Homo sapiens (Human), UniProt O43353). As to the kind of experiment: RIPK2 inhibition assay, TR-FRET LanthaScreen Tracer 199 screening assay. In kind it is binding. The note with it: 5 nM RIPK2 enzyme, Tracer 199 at 50 nM, Eu-anti-His Antibody at 2 nM, 1 hour incubation. On the procedure: All data was collected using a standard TR-FRET screening assay: LanthaScreen Tracer 199 at 50 nM, Eu-anti-His Antibody at 2 nM, 5 nM RIPK2 enzyme, and 1× Kinase Reaction Buffer. There was a 1 hour incubation prior to read. TR-FRET signal of the interaction (340Ex/665Em/615Em) was read at room temperature with standard setting. Background was subtracted of wells containing no enzyme. Percent inhibition was based on uninhibited controls log (inhibitor) vs. response. Variable slope equation was used with no constraints: Log Y=Bottom+(Top−Bottom)/(1+10^((Log IC50−X)*Hill Slope)).
The compound numbers correspond to the compound numbers above.
(Time-resolved FRET reads energy transfer from a long-lived donor to a nearby acceptor.)

Chain of RIPK2 enzyme (O43353 whole entry): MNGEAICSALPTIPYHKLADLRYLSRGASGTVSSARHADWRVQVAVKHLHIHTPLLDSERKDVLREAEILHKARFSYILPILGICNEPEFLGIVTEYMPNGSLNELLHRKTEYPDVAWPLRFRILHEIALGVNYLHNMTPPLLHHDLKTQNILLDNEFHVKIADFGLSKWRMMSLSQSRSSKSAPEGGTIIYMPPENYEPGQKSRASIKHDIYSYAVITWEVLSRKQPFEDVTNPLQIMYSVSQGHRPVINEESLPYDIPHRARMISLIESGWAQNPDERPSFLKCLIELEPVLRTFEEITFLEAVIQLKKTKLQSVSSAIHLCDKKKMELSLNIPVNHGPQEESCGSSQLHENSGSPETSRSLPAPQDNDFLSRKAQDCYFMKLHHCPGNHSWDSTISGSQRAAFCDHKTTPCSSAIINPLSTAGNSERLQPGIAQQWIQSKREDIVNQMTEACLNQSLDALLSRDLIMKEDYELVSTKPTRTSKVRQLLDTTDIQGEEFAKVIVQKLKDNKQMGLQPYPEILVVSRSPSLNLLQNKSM

Consider `C1=C(c2cc3c(Nc4ccc5scnc5c4)ccnc3s2)C2(COC2)NC1` [Example 39, N-(2-(2-oxa-5-azaspiro[3.4]oct-7-en-8-yl)thieno[2,3-b]pyridin-4-yl)benzo[d]thiazol-5-amine], for which the IC50 (commonly the midpoint of a concentration-inhibition curve) was not above 0.01 µM.

Compound `C1=C(c2cc3c(Nc4ccc5scnc5c4)ccnc3s2)C2(CCOC2)NC1` (centres unmarked) [Example 40, N-(2-(7-oxa-1-azaspiro[4.4]non-3-en-4-yl)thieno[2,3-b]pyridin-4-yl)benzo[d]thiazol-5-amine] yielded an IC50 not above 0.01 µM. Consider `CN1CC=C(c2cc3c(Nc4ccc5scnc5c4)ccnc3s2)C12CCOC2` (centres unmarked) [Example 41, N-(2-(1-methyl-7-oxa-1-azaspiro[4.4]non-3-en-4-yl)thieno[2,3-b]pyridin-4-yl)benzo[d]thiazol-5-amine], for which the IC50 fell in the range of 0.01 to 0.02 µM. Compound `c1cc(Nc2ccc3scnc3c2)c2cc(C3CCNC34CCOC4)sc2n1` (centres unmarked) [Example 42, N-(2-(7-oxa-1-azaspiro[4.4]nonan-4-yl)thieno[2,3-b]pyridin-4-yl)benzo[d]thiazol-5-amine] displayed an IC50 of 0.01 to 0.02 µM. As for `CN1CCC(c2cc3c(Nc4ccc5scnc5c4)ccnc3s2)C12CCOC2` (centres unmarked) [Example 43, N-(2-(1-methyl-7-oxa-1-azaspiro[4.4]nonan-4-yl)thieno[2,3-b]pyridin-4-yl)benzo[d]thiazol-5-amine], the IC50 is 0.02 to 0.05 µM. The same measure for `CCN1CC=C(c2cc3c(Nc4ccc5scnc5c4)ccnc3s2)C12CCOC2` (centres unmarked) [Example 44, N-(2-(1-ethyl-7-oxa-1-azaspiro[4.4]non-3-en-4-yl)thieno[2,3-b]pyridin-4-yl)benzo[d]thiazol-5-amine]: not above 0.01 µM. In the case of `CCN1CCC(c2cc3c(Nc4ccc5scnc5c4)ccnc3s2)C12CCOC2` (centres unmarked) [Example 45, N-(2-(1-ethyl-7-oxa-1-azaspiro[4.4]nonan-4-yl)thieno[2,3-b]pyridin-4-yl)benzo[d]thiazol-5-amine], the IC50 fell in the range of 0.01 to 0.02 µM.

`C1=C(c2cc3c(Nc4ccc5scnc5c4)ccnc3s2)C2(CCOCC2)NC1` [Example 46, N-(2-(8-oxa-1-azaspiro[4.5]dec-3-en-4-yl)thieno[2,3-b]pyridin-4-yl)benzo[d]thiazol-5-amine] had an IC50 not above 0.01 µM. Consider `CCN1CC=C(c2cc3c(Nc4ccc5scnc5c4)ccnc3s2)C12CCOCC2` [Example 47, N-(2-(1-ethyl-8-oxa-1-azaspiro[4.5]dec-3-en-4-yl)thieno[2,3-b]pyridin-4-yl)benzo[d]thiazol-5-amine], for which the IC50 was not above 0.01 µM. In turn, `CCN1CCC(c2cc3c(Nc4ccc5scnc5c4)ccnc3s2)C12CCOCC2` (centres unmarked) [Example 48, N-(2-(1-ethyl-8-oxa-1-azaspiro[4.5]decan-4-yl)thieno[2,3-b]pyridin-4-yl)benzo[d]thiazol-5-amine] gave an IC50 not below 0.05 µM. With `C[C@H]1NCCC=C1c1cc2c(Nc3cc4ncsc4cc3F)ccnc2s1` [Example 49a, 6-fluoro-N-(2-(2-methyl-1,2,5,6-tetrahydropyridin-3-yl)thieno[2,3-b]pyridin-4-yl)benzo[d]thiazol-5-amine] the figure was 0.01 to 0.02 µM. Consider `C[C@@H]1NCCC=C1c1cc2c(Nc3cc4ncsc4cc3F)ccnc2s1` [Example 49b, 6-fluoro-N-(2-(2-methyl-1,2,5,6-tetrahydropyridin-3-yl)thieno[2,3-b]pyridin-4-yl)benzo[d]thiazol-5-amine], for which the IC50 is not above 0.01 µM.

Regarding `C[C@H]1NCCC[C@H]1c1cc2c(Nc3cc4ncsc4cc3F)ccnc2s1` [Example 50b, 6-fluoro-N-(2-((2R)-2-methylpiperidin-3-yl)thieno[2,3-b]pyridin-4-yl)benzo[d]thiazol-5-amine], the IC50 was not above 0.01 µM. The compound `C[C@@H]1NCCC[C@@H]1c1cc2c(Nc3cc4ncsc4cc3F)ccnc2s1` [Example 51b] yielded an IC50 of 0.02 to 0.05 µM. Consider `CCN1CCC=C(c2cc3c(Nc4cc5ncsc5cc4F)ccnc3s2)[C@H]1C` [Example 52a, N-(2-(1-ethyl-2-methyl-1,2,5,6-tetrahydropyridin-3-yl)thieno[2,3-b]pyridin-4-yl)-6-fluorobenzo[d]thiazol-5-amine], for which the IC50 is 0.01 to 0.02 µM. In the case of `CCN1CCC=C(c2cc3c(Nc4cc5ncsc5cc4F)ccnc3s2)[C@@H]1C` [Example 52b, N-(2-(1-ethyl-2-methyl-1,2,5,6-tetrahydropyridin-3-yl)thieno[2,3-b]pyridin-4-yl)-6-fluorobenzo[d]thiazol-5-amine], the IC50 was 0.01 to 0.02 µM.

Compound `CCN1CCC[C@@H](c2cc3c(Nc4cc5ncsc5cc4F)ccnc3s2)[C@H]1C` [Example 53b, N-(2-((2R)-1-ethyl-2-methylpiperidin-3-yl)thieno[2,3-b]pyridin-4-yl)-6-fluorobenzo[d]thiazol-5-amine] gave an IC50 not above 0.01 µM. With `CCN1CCC[C@H](c2cc3c(Nc4cc5ncsc5cc4F)ccnc3s2)[C@@H]1C` [Example 54b, N-(2-(1-ethyl-2-methylpiperidin-3-yl)thieno[2,3-b]pyridin-4-yl)-6-fluorobenzo[d]thiazol-5-amine] the figure was 0.02 to 0.05 µM.

Turning to `C[C@H]1NCCC[C@@H]1c1cc2c(Nc3ccc4scnc4c3F)ccnc2s1` [Example 56a, 4-fluoro-N-(2-((2R,3S)-2-methyl-piperidin-3-yl)thieno[2,3-b]pyridin-4-yl)benzo[d]thiazol-5-amine], the IC50 is not above 0.01 µM. The same measure for `C[C@H]1NCCC[C@H]1c1cc2c(Nc3ccc4scnc4c3F)ccnc2s1` [Example 56b, 4-fluoro-N-(2-((2R,3R)-2-methyl-piperidin-3-yl)thieno[2,3-b]pyridin-4-yl)benzo[d]thiazol-5-amine]: not above 0.01 µM; for `C[C@@H]1NCCC[C@H]1c1cc2c(Nc3ccc4scnc4c3F)ccnc2s1` [Example 57a, 4-fluoro-N-(2-((2S,3R)-2-methylpiperidin-3-yl)thieno-[2,3-b]pyridin-4-yl)benzo[d]thiazol-5-amine]: 0.01 to 0.02 µM; for `C[C@@H]1NCCC[C@@H]1c1cc2c(Nc3ccc4scnc4c3F)ccnc2s1` [Example 57b, 4-fluoro-N-(2-((2S,3S)-2-methylpiperidin-3-yl)thieno-[2,3-b]pyridin-4-yl)benzo[d]thiazol-5-amine]: not above 0.01 µM. On to `C[C@@H]1[C@@H](c2cc3c(Nc4ccc5scnc5c4F)ccnc3s2)CCCN1C` [Example 58, N-(2-((2R,3S)-1,2-dimethylpiperidin-3-yl)thieno[2,3-b]pyridin-4-yl)-4-fluorobenzo[d]thiazol-5-amine], for which the IC50 is not above 0.01 µM.

Consider `C[C@H]1[C@H](c2cc3c(Nc4ccc5scnc5c4F)ccnc3s2)CCCN1C` [Example 59, N-(2-((2S,3R)-1,2-dimethylpiperidin-3-yl)thieno[2,3-b]pyridin-4-yl)-4-fluorobenzo[d]thiazol-5-amine], for which the IC50 was not above 0.01 µM. `C[C@H]1[C@@H](c2cc3c(Nc4ccc5scnc5c4F)ccnc3s2)CCCN1C` [Example 61, N-(2-((2S,3S)-1,2-dimethylpiperidin-3-yl)thieno[2,3-b]pyridin-4-yl)-4-fluorobenzo[d]thiazol-5-amine] came in with an IC50 not above 0.01 µM. Compound `CCN1CCC[C@H](c2cc3c(Nc4ccc5scnc5c4F)ccnc3s2)[C@H]1C` [Example 62, N-(2-((2R,3S)-1-ethyl-2-methylpiperidin-3-yl)thieno[2,3-b]pyridin-4-yl)-4-fluorobenzo[d]thiazol-5-amine] showed an IC50 not above 0.01 µM. The same measure for `CCN1CCC[C@@H](c2cc3c(Nc4ccc5scnc5c4F)ccnc3s2)[C@@H]1C` [Example 63, N-(2-((2S,3R)-1-ethyl-2-methylpiperidin-3-yl)thieno[2,3-b]pyridin-4-yl)-4-fluorobenzo[d]thiazol-5-amine]: not above 0.01 µM. On to `CCN1CCC[C@@H](c2cc3c(Nc4ccc5scnc5c4F)ccnc3s2)[C@H]1C` [Example 64, N-(2-((2R,3R)-1-ethyl-2-methylpiperidin-3-yl)thieno[2,3-b]pyridin-4-yl)-4-fluorobenzo[d]thiazol-5-amine], for which the IC50 was not above 0.01 µM. The same measure for `CCN1CCC[C@H](c2cc3c(Nc4ccc5scnc5c4F)ccnc3s2)[C@@H]1C` [Example 65, N-(2-((2S,3S)-1-ethyl-2-methylpiperidin-3-yl)thieno[2,3-b]pyridin-4-yl)-4-fluorobenzo[d]thiazol-5-amine]: not above 0.01 µM. With `C[C@H]1NCCC=C1c1cc2c(Nc3c(F)cc4scnc4c3F)ccnc2s1` [Example 66a, (R)-4,6-difluoro-N-(2-(2-methyl-1,2,5,6-tetrahydropyridin-3-yl)thieno[2,3-b]pyridin-4-yl)benzo[d]thiazol-5-amine] the figure was not above 0.01 µM; with `C[C@@H]1NCCC=C1c1cc2c(Nc3c(F)cc4scnc4c3F)ccnc2s1` [Example 66b, (S)-4,6-difluoro-N-(2-(2-methyl-1,2,5,6-tetrahydropyridin-3-yl)thieno[2,3-b]pyridin-4-yl)-benzo[d]thiazol-5-amine], not above 0.01 µM. With `C[C@H]1NCCC[C@@H]1c1cc2c(Nc3c(F)cc4scnc4c3F)ccnc2s1` [Example 67a, 4,6-difluoro-N-(2-((2R,3S)-2-methylpiperidin-3-yl)thieno[2,3-b]pyridin-4-yl)benzo[d]thiazol-5-amine] the figure was not above 0.01 µM; with `C[C@H]1NCCC[C@H]1c1cc2c(Nc3c(F)cc4scnc4c3F)ccnc2s1` [Example 67b, 4,6-difluoro-N-(2-((2R,3R)-2-methylpiperidin-3-yl)thieno[2,3-b]pyridin-4-yl)benzo[d]thiazol-5-amine], not above 0.01 µM. With `C[C@@H]1NCCC[C@H]1c1cc2c(Nc3c(F)cc4scnc4c3F)ccnc2s1` [Example 68a, 4,6-difluoro-N-(2-((2S,3R)-2-methylpiperidin-3-yl)thieno[2,3-b]pyridin-4-yl)benzo[d]thiazol-5-amine], the IC50 was 0.01 to 0.02 µM. The same measure for `C[C@@H]1NCCC[C@@H]1c1cc2c(Nc3c(F)cc4scnc4c3F)ccnc2s1` [Example 68b, 4,6-difluoro-N-(2-((2S,3S)-2-methylpiperidin-3-yl)thieno[2,3-b]pyridin-4-yl)benzo[d]thiazol-5-amine]: not above 0.01 µM.
